Key:
[1] = molecular target: T1, integrin β3 cytoplasmic domain (bβ3(fl)) : GST-Syk(6-370) (Homo sapiens, UniProt P43405); experiment: ELISA-based orthogonal assay, bβ3(fl) and GST-Syk(6-370); type: binding
T1 construct: the tandem SH2 domains of Syk (residues 6-370); made in house; host or cells: E. coli BL21(DE3)
Method: For ELISA-based assays, 96-well plates (Costar cat# 9018) were coated overnight at 4°C with neutravidin (Thermo Scientific, cat#31050) in 10 mM Tris pH 9 and 100 mM NaCl. After overnight incubation, non-specific binding sites were blocked with bovine serum albumin (BSA) (2% w/v) for at least 1 h at room temperature. Plates were washed in 25 mM HEPES pH 7.5, 100 mM NaCl, 0.1% BSA, and 0.01% TritonX-100 (assay buffer), and indicated biotinylated β3 peptide was incubated for at least 2 h at room temperature (0.5–3 ug/ml in di-H2O). After washing in the assay buffer, GST-fusion proteins were added (50 ul, indicated concentrations) and incubated at room temperature for 1 h in assay buffer. For compound inhibition studies, compounds were added to GST-fusion proteins (at indicated concentrations) before they were added to plates. Plates were washed 3× with assay buffer (200 ul) to remove unbound GST-fusion protein. Horseradish peroxidase (HRP)-conjugated anti-GST antibody [Polyclonal anti-GST(Z-5)-HRP, Santa Cruz Biotechnology, cat #sc-459 0.2 ug/ml] was incubated in washed plates in 50 ul assay buffer for 45 min at room temperature. After washing, the signal was generated with 1-step Ultra TMB-ELISA (Thermo Scientific, cat#34028), stopped with 2 N H2SO4, and read on a plate reader (SPARK 10M/Tecan) at 450 nm.
Figure 3 Dose-response curves in primary and orthogonal screens. (A) AlphaScreen dose-response curves. […] Data are expressed as mean fluorescence (Fl520) ± range from duplicates, and one representative experiment of “n” performed is shown. (B) Orthogonal ELISA-based dose-response assays. […] Data are expressed as mean abs450 ± SEM from triplicate determinations, and one of three representative experiments is shown. (C) Ceftazidime inhibition of β3 peptide binding to Syk from THP-1 whole cell lysate. THP-1 cell lysate (100 ug) was treated with or without ceftazidime (Ctaz) before incubation with β3-coated avidin-agarose beads, and bound Syk was measured by western blot (example shown in inset). Blank beads served as a negative control. […]

[2] = system: IL-1β gene expression in THP-1 cells; experiment: Quantitative PCR of adhesion-dependent IL-1β expression in THP-1 cells; type: cell-based, human; details: 100 µM loaded cells, plated on CS-1, 4 h, qPCR
Method: THP-1 cells (2 × 10^6 per treatment group) that were glycerol loaded with ceftazidime (100 µM) or vehicle control (as described above) were plated on CS-1 peptide (10 µg/ml; 6-well plates) in serum-free RPMI-1640. Control cells were also kept in suspension. Plated and suspension cells were incubated for 4 h at 37°C. After incubation, the medium was removed, and RNA was isolated from cells with a Qiagen RNA extraction kit. After cDNA synthesis, quantitative real-time PCR was used to determine the relative gene expression levels of IL-1β and monocyte chemoattractant protein (MCP)-1 in THP-1 cells adhered to CS-1 in the presence of vehicle or ceftazidime relative to that of cells in suspension. The cycle threshold (Ct) results generated were analyzed according to the comparative Ct method (2^-ΔΔCt), where ΔCt is the difference between the CT value of target versus GAPDH control, and ΔΔCt is the difference between the ΔCt values of a given treated adherent cell sample and that of cells in suspension. Statistical differences between the two treatment groups for each target were determined by a two-tailed, unpaired Student t test using GraphPad Prism 7.04 statistical software.
Figure 6 Selective inhibition of integrin signaling by ceftazidime. […] Data are expressed as mean ± range from duplicate determinations. […] Kinase activity is expressed as percent of maximum signal. […]

inhibitory activity in ELISA-based orthogonal assay [1]: remained active
SMILES: CC(C)(O/N=C(\C(=O)N[C@@H]1C(=O)N2C(C(=O)[O-])=C(C[n+]3ccccc3)CS[C@H]12)c1csc(N)n1)C(=O)O [ceftazidime]
adhesion-dependent induction of the expression of IL-1β [2]: significantly inhibited

— article PMC7819857, “Identification of Inhibitors of Integrin Cytoplasmic Domain Interactions With Syk” (Frontiers in Immunology, 2021)
